Tested on: Interleukin 1 (IL-1) production by peritoneal macrophages
Test: IL-1 Assay: production of interleukin-1 by peritoneal macrophages (thymocyte bioassay)
Format: cell-based, mouse (C57B1/6)
Parameters: inhibition: dose or concentration left out as unconfirmed
Details: for inhibition at 0.001 µg/mL / inhibition at 0.01 µg/mL / inhibition at 0.1 µg/mL / inhibition at 2.5 µg/mL / inhibition at 10 µg/mL / inhibition at 25 µg/mL / inhibition at 100 µg/mL / inhibition: Mus musculus, Peritoneal macrophage, read-out: % effect on IL-1 production (thymidine uptake by thymocytes)
Text: Interleukin 1 (IL-1) is a potent immunomodulatory cytokine that has a broad range of pro-inflammatory activities. IL-1 is known to be produced by activated accessory cells such as macrophages. Accessory cell production of IL-1 results in the activation and proliferation of T and B lymphocytes. Therefore, by inhibiting macrophage activation and production of IL-1, the activation and proliferation of the cellular effectors of inflammation can be modulated. Compounds of the invention were screened for inhibitory activity in a classical IL-1 assay. Six to 8 week old male C57B1/6 mice were purchased from Harlan Sprague Dawley. Peritoneal macrophages were elicited by the administration to mice of a single intraperitoneal injection of 0.2 ml of complete Freund's adjuvant. After 48 hours, elicited macrophages were removed from the mice by lavage with the use of Hank's balanced salt solution. […] To the macrophage cultures were added various doses of the compounds of the invention and 10 ug/ml of the macrophage activator lipopolysaccharide (to stimulate IL-1 production). Control cultures consisted of macrophages, lipopolysaccharide and culture medium containing various doses of DMSO only. […] The amount of IL-1 produced in the individual wells was determined in a bioassay for IL-1. This involved the removal of thymuses from mice less than 8 weeks of age. Thymocytes were isolated by passing each thymus through a stainless steel mesh screen. […] After 18 hours cells were harvested and radioactive incorporation (as a measure of cell proliferation) was quantitated in a liquid scintillation counter. The students t test was used to determine the significance of the difference between experimental and control values.

Compound	^3 H-Thymidine uptake by thymocytes (0.001 ug/ml)	^3 H-Thymidine uptake by thymocytes (0.01 ug/ml)	^3 H-Thymidine uptake by thymocytes (0.1 ug/ml)	^3 H-Thymidine uptake by thymocytes (1 ug/ml)	^3 H-Thymidine uptake by thymocytes (2.5 ug/ml)	^3 H-Thymidine uptake by thymocytes (10 ug/ml)	^3 H-Thymidine uptake by thymocytes (25 ug/ml)	^3 H-Thymidine uptake by thymocytes (100 ug/ml)	inhibition at 0.001 µg/mL (0.001 ug/ml)	inhibition at 0.01 µg/mL (0.01 ug/ml)	inhibition at 0.1 µg/mL (0.1 ug/ml)	inhibition at 2.5 µg/mL (2.5 ug/ml)	inhibition at 10 µg/mL (10 ug/ml)	inhibition at 25 µg/mL (25 ug/ml)	inhibition at 100 µg/mL (100 ug/ml)	inhibition
CCCCCCCOC[C@H]1O[C@@]2(OC)COC(C)(C)O[C@H]2[C@@H]1O [Ia, methyl 1,3-O-isopropylidene-6-O-heptyl-α-D-fructofuranoside]	10,550 cpm	10,960 cpm	10,265 ± 227 cpm	10,777 ± 1,903 cpm	8,250 ± 705 cpm	4,970 ± 410 cpm	3,210 ± 149 cpm	2,215 ± 643 cpm	3%	-1%	8%	28%	51%	63%	75%	2%
CCCCC/C=C/COC[C@H]1O[C@@]2(OC)COC(C)(C)O[C@H]2[C@@H]1OC/C=C/CCCCC [Ie, methyl 1,3-O-isopropylidene-4,6-di-O-(trans,2-octenyl)-α-D-fructofuranoside]	12,713 ± 866 cpm	12,040 cpm	11,047 ± 702 cpm	9,710 ± 1,323 cpm	7,000 ± 686 cpm	6,100 ± 775 cpm	5,300 ± 1,405 cpm	4,300 ± 1,100 cpm	-17%	-11%	1%	30%	40%	40%	51%	12%
CN1CCCC1CCNC[C@H]1OC(C)(C)O[C@@H]2[C@H]3OC(C)(C)O[C@H]3O[C@@H]21 (stereo partly shown) [IIIi]	11,367 ± 906 cpm	9,902 ± 888 cpm	10,740 ± 724 cpm	9,561 ± 113 cpm	5,382 ± 45 cpm	5,169 ± 870 cpm	5,052 ± 140 cpm	2,328 ± 278 cpm	-39%	-20%	-39%	35%	33%	34%	65%	-22%
CC1(C)OC2OC(C(O)COCCCc3ccccc3)C(O)C2O1 [IIIe, 1,2-O-Isopropylidene-6-O-3'-(phenylpropyl)-α-D-glucofuranose]	7,276 ± 399 cpm	8,908 ± 773 cpm	8,049 ± 282 cpm	4,279 ± 691 cpm	3,676 ± 506 cpm	2,586 ± 553 cpm	1,840 ± 301 cpm	1,129 ± 299 cpm	-11%	-8%	-4%	56%	66%	76%	83%	-45%

Reference: patent US5298494A, “Monosaccharides having anti-proliferation and anti-inflammatory activity, compositions and uses thereof” (Greenwich Pharmaceuticals Incorporated, priority 1993, dated 1994)
